The SangsterLogP compilation

Assay: method code SF-HPLC, from DOI: 10.1016/s0928-0987(01)00163-4, PMID: 11500258
Conditions: pH 7.4

Structure (SMILES)	logD
COc1ccc2cc(C(C)C(=O)OCCOCCOCCOCCO)ccc2c1 (stereo not drawn)	3.5
CC(C(=O)OCCOCCOCCO)c1cccc(C(=O)c2ccccc2)c1 (stereo not drawn)	3.4
CC(C(=O)OCCOCCOCCOCCO)c1cccc(C(=O)c2ccccc2)c1 (stereo not drawn)	3.6
COc1ccc2cc(C(C)C(=O)OCCOCCOCCOCCOCCOCCO)ccc2c1 (stereo not drawn)	2.9
O=C(Cc1ccccc1Nc1c(Cl)cccc1Cl)OCCOCCOCCOCCO	3.5
O=C(Cc1ccccc1Nc1c(Cl)cccc1Cl)OCCOCCOCCOCCOCCOCCO	2.6
COc1ccc2cc(C(C)C(=O)OCCOCCOCCO)ccc2c1 (stereo not drawn)	3.7
COc1ccc2cc(C(C)C(=O)OCCOCCOCCOCCOCCO)ccc2c1 (stereo not drawn)	3.2
CC(C(=O)OCCOCCO)c1cccc(C(=O)c2ccccc2)c1 (stereo not drawn)	3.6
O=C(Cc1ccccc1Nc1c(Cl)cccc1Cl)OCCOCCO	4.1
CC(C(=O)OCCOCCOCCOCCOCCO)c1cccc(C(=O)c2ccccc2)c1 (stereo not drawn)	3.9
CC(C(=O)OCCOCCOCCOCCOCCOCCO)c1cccc(C(=O)c2ccccc2)c1 (stereo not drawn)	3.5
O=C(Cc1ccccc1Nc1c(Cl)cccc1Cl)OCCOCCOCCO	3.9
